From patent publication EP4175633B1, “THIENO[3,4-C]PYRAZOL-3-YL […] AUTOTAXIN INHIBITORS” (Uni-Pharma Kleon Tsetis Pharmaceutical Laboratories S.A., priority 2020, dated 2022)
Read-outs that look alike come from different tables or passages of the source.

Columns and labels:
mouse ATX = mouse ATX (Mus musculus, UniProt Q9R1E6); test: Amplex Red activity assay (ATX inhibition, LPC hydrolysis); type: biochemical
Description: (§1) In a similar approach to TOOS Activity Assay, this widely used method detects the ATX ability to hydrolyze LPC using a test that monitors choline release using Amplex Red fluorescent reagent (10 mM), choline oxidase (0.2 U/mL) and Radish Peroxidase (HRP - 2 U/mL). All reactions were conducted with 2 nM pure ATX and 50 µM LPC (16:0 or 18:0) at 37 °C. Inhibitors (3 mM) were dissolved in dimethyl sulfoxide (DMSO) at concentrations from 0.001 to 5 µmol/L. Fluorescence values were measured on a fluorescent plate reader (Tecan Infinite 200). IC50 values were determined using the values from two independent experiments, using the sigmoid dose-response curve (PrismH software) from the equation f = y0 + a / (1 + exp (- (x-x0) / b) given from SigmaPlot 11.0.
(§2) Subsequently, 50 µL of a buffer solution containing 200 µM LPC 16:0 (final concentration 50 µM) were added to the reaction mixture followed by incubation for another 30 minutes at 37 °C. Finally, 50 µL of working solution containing 200 µM Amplex Red reagent and choline oxidase (0.2 U/mL) κα ? HRP (2 U/mL), in 50 mM Tris-HCl at pH 8.0 and 5 mM CaCl2, was added to begin the reaction. The reaction was monitored at 37 °C, in a fluorescence plate reader (Tecan Infinite 200) using excitation at 530 nm and reading at 590 nm, every five minutes for 30 minutes at 37°C. The IC50 value was calculated from two independent experiments, using the sigmoid dose-response curve (PrismH software) from the equation f=y0+a/(1+exp(-(x-x0)/b) given from SigmaPlot 11.0.
as §2, with “was” for “were”, “Finally, 50 µL of working solution containing 200 µM Amplex Red reagent and choline oxidase (0.2 U/mL) κα ? HRP (2 U/mL), in 50 mM Tris-HCl at pH 8.0 and 5 mM CaCl2, was added to begin the reaction.” left out

human ATX = human ATX (Homo sapiens, UniProt Q13822); test: as above; type: biochemical
Description: as §1, §2
as §2, with “was” for “were”
as §2, with “was” for “were”, “Finally, 50 µL of working solution containing 200 µM Amplex Red reagent and choline oxidase (0.2 U/mL) κα ? HRP (2 U/mL), in 50 mM Tris-HCl at pH 8.0 and 5 mM CaCl2, was added to begin the reaction.” left out
as §2, with “was” for “were”, “Finally, 50 µL of working solution containing 200 µM Amplex Red reagent and choline oxidase (0.2 U/mL) κα ? HRP (2 U/mL), in 50 mM Tris-HCl at pH 8.0 and 5 mM CaCl2, was added to begin the reaction.” left out

[1] = ATX final concentration 2 nM, LPC 16:0 50 µM, 37 °C, two independent experiments, read-out: IC50 value for the inhibition of mouse ATX
[2] = human ATX final concentration 1 nM, LPC 16:0 50 µM, 37 °C, two independent experiments, read-out: IC50 value for human ATX inhibition

Row | SMILES | IC50 (mouse ATX; [1]) [µM] | IC50 (human ATX; [2]) [µM] | other results
1 | O=C(Nc1c2c(nn1-c1ccc(Br)cc1)CSC2)c1cccc2ccccc12 [A4] | 12.7 | 3.5 | 
2 | O=C(O)c1ccc(-n2nc3c(c2NC(=O)c2cccc4ccccc24)CSC3)cc1 [A15] |  |  | IC50 (mouse ATX; mATX 2 nM (values without asterisk), read-out: IC50 (µM) (in mATX 2 nM)): 59.3 µM
3 | COC(C(=O)Nc1c2c(nn1-c1ccc(Br)cc1)CSC2)(c1ccccc1)C(F)(F)F (centres unmarked) [A17] |  | 2 | 
4 | O=C(Nc1c2c(nn1-c1ccncc1)CSC2)c1cccc2ccccc12 [A16] |  | 7.5 | 
5 | O=C(Nc1c2c(nn1-c1ccc(Br)cc1)CSC2)c1cc(Cl)cc(Cl)c1 [A18] |  |  | IC50 (human ATX; values marked *: evaluation performed in human ATX (hATX) 1 nM, read-out: IC50 (µM) (in mATX 2 nM)): 2.5 µM
6 | O=C(Nc1c2c(nn1-c1cnccn1)CSC2)c1cccc2ccccc12 [A14] | 2.5 | 1.3 | 
